Experimental data as given in patent publication US12454507B2, “Compounds having a fungicidal activity, their agronomic compositions and use thereof for the control of phytopathogenic fungi” (ISAGRO S.p.A., priority 2019, dated 2025).

Tests used:
Plasmopara viticola = test: Preventive activity (7 days) against Plasmopara viticola on vines; type: in vivo; settings: leaf spray, inoculation 7 days after treatment, vine Merlot, reduction of diseased leaf area vs untreated (100=complete effectiveness)
Description: Leaves of vine plants, Merlot variety, grown in pots, in a conditioned environment (20±1° C., 70% R.H.) were treated by spraying both sides of the leaves with the products in question. 7 days after the treatment, the plants were inoculated with an aqueous suspension of Plasmopara viticola spores (200,000 spores/cc) by spraying both sides of the leaves with a compressed air gun. After remaining 24 hours in a humidity-saturated environment, at 21° C., the plants were transferred for the incubation period (7 days) in a conditioned environment with 70% R.H. and at 24° C. After this period of time, the external symptoms of the pathogen appeared and it was therefore possible to evaluate the intensity of the infection.

Puccinia Recondita = test: Preventive fungicidal activity (5 days) against Puccinia recondita on wheat; type: in vivo; settings: wheat Salgemma, inoculation 5 days after treatment; for P5 Activity NT: parts developed during the test (NT); for P5 Activity T: parts treated directly (T)
Description: Leaves of wheat plants of the […] variety, grown in pots in a conditioned environment at 20° C. and 70% of Relative Humidity (RH), were treated by spraying both sides of the leaves with the compound under examination dispersed in a hydroacetone solution at 20% by volume of acetone. […] After spraying, the plants were kept in a humidity-saturated environment at a temperature ranging from 18 to 24° C. for the incubation period of the fungus (1 day). At the end of this period, the plants were put in a greenhouse with a relative humidity (RH) of 70% and at a temperature of 18-24° C. for 14 days At the end of this period, the external symptoms of the pathogen appeared and it was therefore possible to proceed with the visual evaluation of the intensity of the infection, both on the parts treated directly with the products (T) and on the parts developed during the implementation of the test (NT).

Phakopsora pachyrhizi = test: Preventive fungicidal activity (5 days) against Phakopsora pachyrhizi on soya; type: in vivo; settings: for P5 Activity: soya Zora, inoculation 5 days after treatment; for control of the pathogen: dose of 125 ppm
Parastagonospora nodorum = test: Antifungal activity in vitro (growth inhibition, 96-well absorbance); type: cell-based; settings: 20° C., 72 hours (96 or 120 when necessary)
Phytophthora infestans = type: cell-based; settings: for In vitro antifungal activity, 50% effective doses (EC50): Phytophthora infestans, 20° C., 72 hours (96 or 120 when necessary)
Sclerotinia sclerotiorum = test: Antifungal activity in vitro (growth inhibition, 96-well absorbance); type: cell-based; settings: 20° C., 72 hours (96 or 120 when necessary)
Pythium ultimum = type: cell-based; settings: for In vitro antifungal activity, 50% effective doses (EC50): Pythium ultimum, 20° C., 72 hours (96 or 120 when necessary)
Magnaporthe oryzae = type: cell-based; settings: for In vitro antifungal activity, 50% effective doses (EC50): Magnaporthe oryzae, 20° C., 72 hours (96 or 120 when necessary)
Zymoseptoria tritici = test: Antifungal activity in vitro (growth inhibition, 96-well absorbance); type: cell-based; settings: 20° C., 72 hours (96 or 120 when necessary)
Cercospora beticola = test: as above; type: cell-based; settings: 20° C., 72 hours (96 or 120 when necessary)
Venturia inaequalis = type: cell-based; settings: for In vitro antifungal activity, 50% effective doses (EC50): Venturia inaequalis, 20° C., 72 hours (96 or 120 when necessary)
Bipolaris sorokiniana = test: Antifungal activity in vitro (growth inhibition, 96-well absorbance); type: cell-based; settings: 20° C., 72 hours (96 or 120 when necessary)
Alternaria alternata = type: cell-based; settings: 20° C., 72 hours (96 or 120 when necessary)

SMILES: CCCCCCC[C@H](C)OC(=O)[C@H](C)NC(=O)c1cccc(NC=O)c1O [Compound 249]
- P7Activity (Plasmopara viticola; 30 ppm): 100%
- P7Activity (Plasmopara viticola; 125 ppm): 100%
- P5 Activity NT (Puccinia Recondita; 125 ppm): 95%
- P5 Activity T (Puccinia Recondita; 125 ppm): 99%
- P5 Activity NT (Puccinia Recondita; 250 ppm): 100%
- P5 Activity T (Puccinia Recondita; 250 ppm): 100%
- P5 Activity (Phakopsora pachyrhizi; 15 ppm): 98%
- P5 Activity (Phakopsora pachyrhizi; 30 ppm): 100%
- control of the pathogen (Phakopsora pachyrhizi): complete control

SMILES: CCCCC(CC)COC(=O)[C@H](C)OC(=O)[C@H](C)NC(=O)c1cccc(NC=O)c1O (stereo partly shown) [Compound 239]
- In vitro antifungal activity, 50% effective doses (EC50) (Parastagonospora nodorum): 0.006 µg/mL
- In vitro antifungal activity, 50% effective doses (EC50) (Phytophthora infestans): 1.62 µg/mL
- In vitro antifungal activity, 50% effective doses (EC50) (Sclerotinia sclerotiorum): 0.081 µg/mL
- In vitro antifungal activity, 50% effective doses (EC50) (Pythium ultimum): 2.78 µg/mL
- In vitro antifungal activity, 50% effective doses (EC50) (Magnaporthe oryzae): 0.64 µg/mL
- In vitro antifungal activity, 50% effective doses (EC50) (Zymoseptoria tritici): 0.067 µg/mL

SMILES: CC(C)C(=O)OCOc1c(NC=O)cccc1C(=O)N[C@@H](C)C(=O)O[C@@H](C)C(c1ccc(F)cc1)c1ccc(F)cc1 [Compound 156, (2S)-2-[3-formamide-2-(methoxy-(2-methyl)propanoate)-benzamide] of (2S)-1,1-bis(4-fluorophenyl)propan-2-yl]
- P7Activity (Plasmopara viticola; 30 ppm): 100%
- P7Activity (Plasmopara viticola; 125 ppm): 100%
- P5 Activity NT (Puccinia Recondita; 125 ppm): 93%
- P5 Activity T (Puccinia Recondita; 125 ppm): 98%
- P5 Activity NT (Puccinia Recondita; 250 ppm): 100%
- P5 Activity T (Puccinia Recondita; 250 ppm): 100%
- P5 Activity (Phakopsora pachyrhizi; 15 ppm): 100%
- P5 Activity (Phakopsora pachyrhizi; 30 ppm): 100%
- control of the pathogen (Phakopsora pachyrhizi): complete control

SMILES: CCCCOC(=O)[C@H](C)OC(=O)[C@H](C)NC(=O)c1cccc(NC=O)c1O [Compound 236]
- In vitro antifungal activity, 50% effective doses (EC50) (Parastagonospora nodorum): 0.009 µg/mL
- In vitro antifungal activity, 50% effective doses (EC50) (Cercospora beticola): 8.64 µg/mL
- In vitro antifungal activity, 50% effective doses (EC50) (Venturia inaequalis): 1.77 µg/mL
- In vitro antifungal activity, 50% effective doses (EC50) (Phytophthora infestans): 1.49 µg/mL
- In vitro antifungal activity, 50% effective doses (EC50) (Bipolaris sorokiniana): 8.0 µg/mL
- In vitro antifungal activity, 50% effective doses (EC50) (Sclerotinia sclerotiorum): 0.18 µg/mL
- In vitro antifungal activity, 50% effective doses (EC50) (Magnaporthe oryzae): 0.79 µg/mL
- In vitro antifungal activity, 50% effective doses (EC50) (Zymoseptoria tritici): 0.095 µg/mL

SMILES: COc1ccnc(C(=O)N[C@@H](C)C(=O)O[C@@H](C)C(c2ccc(F)cc2)c2ccc(F)cc2)c1OC(C)=O [CR1, Florypicoxamid, reference compound]
- P7Activity (Plasmopara viticola; 30 ppm): 10%
- P7Activity (Plasmopara viticola; 125 ppm): 40%
- P5 Activity NT (Puccinia Recondita; 125 ppm): 90%
- P5 Activity T (Puccinia Recondita; 125 ppm): 99%
- P5 Activity NT (Puccinia Recondita; 250 ppm): 100%
- P5 Activity T (Puccinia Recondita; 250 ppm): 100%
- P5 Activity (Phakopsora pachyrhizi; 15 ppm): 100%
- P5 Activity (Phakopsora pachyrhizi; 30 ppm): 100%

SMILES: CCCCCCCC(C)OC(=O)[C@H](C)NC(=O)c1cccc(NC=O)c1O (stereo partly drawn) [Compound 46, (2S)-2-(3-formamide-salicylamide)-propanoate of nonan-2-yl]
- P7Activity (Plasmopara viticola; 30 ppm): 100%
- P7Activity (Plasmopara viticola; 125 ppm): 100%
- In vitro antifungal activity, 50% effective doses (EC50) (Parastagonospora nodorum): 0.001 µg/mL
- In vitro antifungal activity, 50% effective doses (EC50) (Cercospora beticola): 1.34 µg/mL
- In vitro antifungal activity, 50% effective doses (EC50) (Venturia inaequalis): 0.25 µg/mL
- P5 Activity NT (Puccinia Recondita; 125 ppm): 90%
- P5 Activity T (Puccinia Recondita; 125 ppm): 98%
- P5 Activity NT (Puccinia Recondita; 250 ppm): 99%
- P5 Activity T (Puccinia Recondita; 250 ppm): 100%
- In vitro antifungal activity, 50% effective doses (EC50) (Phytophthora infestans): 0.04 µg/mL
- In vitro antifungal activity, 50% effective doses (EC50) (Bipolaris sorokiniana): 2.68 µg/mL
- In vitro antifungal activity, 50% effective doses (EC50) (Sclerotinia sclerotiorum): 0.02 µg/mL
- In vitro antifungal activity, 50% effective doses (EC50) (Zymoseptoria tritici): 0.02 µg/mL
- P5 Activity (Phakopsora pachyrhizi; 15 ppm): 98%
- P5 Activity (Phakopsora pachyrhizi; 30 ppm): 99%
- control of the pathogen (Phakopsora pachyrhizi): complete control

SMILES: C[C@H](NC(=O)c1cccc(NC=O)c1O)C(=O)O[C@@H](C)C(=O)OCc1ccccc1 [Compound 248]
- In vitro antifungal activity, 50% effective doses (EC50) (Parastagonospora nodorum): 0.008 µg/mL
- In vitro antifungal activity, 50% effective doses (EC50) (Phytophthora infestans): 1.14 µg/mL
- In vitro antifungal activity, 50% effective doses (EC50) (Zymoseptoria tritici): 0.17 µg/mL

SMILES: C[C@H](NC(=O)c1ccccc1O)C(=O)O[C@@H](C)C(c1ccc(F)cc1)c1ccc(F)cc1 [CR2, reference compound]
- In vitro antifungal activity, 50% effective doses (EC50) (Alternaria alternata): 7.57 µg/mL
- In vitro antifungal activity, 50% effective doses (EC50) (Parastagonospora nodorum): 0.24 µg/mL
- In vitro antifungal activity, 50% effective doses (EC50) (Cercospora beticola): 0.48 µg/mL
- In vitro antifungal activity, 50% effective doses (EC50) (Bipolaris sorokiniana): 3.6 µg/mL
- In vitro antifungal activity, 50% effective doses (EC50) (Sclerotinia sclerotiorum): 5.38 µg/mL
- In vitro antifungal activity, 50% effective doses (EC50) (Zymoseptoria tritici): 0.14 µg/mL

SMILES: C[C@H](NC(=O)c1cccc(NC=O)c1O)C(=O)O[C@@H](C)C(c1ccc(F)cc1)c1ccc(F)cc1 [Compound 165, (2S)-2-(3-formamide-salicylamide) propanoate of (2S)-1,1-bis(4-fluorophenyl) propan-2-yl]
- P7Activity (Plasmopara viticola; 30 ppm): 100%
- P7Activity (Plasmopara viticola; 125 ppm): 100%
- In vitro antifungal activity, 50% effective doses (EC50) (Alternaria alternata): 0.33 µg/mL
- In vitro antifungal activity, 50% effective doses (EC50) (Parastagonospora nodorum): 0.01 µg/mL
- In vitro antifungal activity, 50% effective doses (EC50) (Cercospora beticola): 0.19 µg/mL
- in vitro antifungal activity (in words) (Venturia inaequalis; V. inaequalis): active
- In vitro antifungal activity, 50% effective doses (EC50) (Venturia inaequalis): 0.18 µg/mL
- P5 Activity NT (Puccinia Recondita; 125 ppm): 88%
- P5 Activity T (Puccinia Recondita; 125 ppm): 95%
- P5 Activity NT (Puccinia Recondita; 250 ppm): 100%
- P5 Activity T (Puccinia Recondita; 250 ppm): 100%
- in vitro antifungal activity (in words) (Phytophthora infestans; P. infestans): active
- In vitro antifungal activity, 50% effective doses (EC50) (Phytophthora infestans): 0.05 µg/mL
- In vitro antifungal activity, 50% effective doses (EC50) (Bipolaris sorokiniana): 0.11 µg/mL
- In vitro antifungal activity, 50% effective doses (EC50) (Sclerotinia sclerotiorum): 0.01 µg/mL
- in vitro antifungal activity (in words) (Pythium ultimum; P. ultimum): active
- In vitro antifungal activity, 50% effective doses (EC50) (Pythium ultimum): 1.54 µg/mL
- in vitro antifungal activity (in words) (Magnaporthe oryzae; M. oryzae): active
- In vitro antifungal activity, 50% effective doses (EC50) (Magnaporthe oryzae): 0.2 µg/mL
- In vitro antifungal activity, 50% effective doses (EC50) (Zymoseptoria tritici): 0.007 µg/mL
- P5 Activity (Phakopsora pachyrhizi; 15 ppm): 99%
- P5 Activity (Phakopsora pachyrhizi; 30 ppm): 100%
- control of the pathogen (Phakopsora pachyrhizi): complete control
